Entries after “also recorded” stand apart in the source; their conditions may differ.
Legend:
[1] = system: CD8+ T cells from HLA-A2+ healthy donors; experiment: Priming of naive CTLs, in vitro immunogenicity assay, tetramer staining; assay type: cell-based, human; settings: for specific CD8+ T expansions (immunogenicity): total of 6 donors, FIG. 11A; for expansion of specific CD8+ T cells (tetramer positive): one donor, versus co-culture without peptides
Experimental: Priming of naïve CTLs. PBMCs were obtained by Ficoll gradient separation from HLA-A2+ healthy blood donors. CD14+, CD4+ and CD8+ cells were purified by positive selection using magnetic beads (Miltenyi Biotec). While CD4+ and CD8+ T cells were cryopreserved until the experiment day, CD14+ fraction was cultured in the presence of IL-4 (50 ng/ml) and GM-CSF (10 ng/mL) at 10^6 cells/mL during 5 days to obtain moDCs. After this period of time, the moDCs were maturated with LPS and incubated with synthetic ER-derived peptides at a final concentration of 1 μg/mL for 2 hours. Finally, peptide-loaded moDCs were co-cultured with autologous CD4+ and CD8+ T cells in culture medium supplemented with IL-2 (10U/ml) and IL-7 (100 ng/ml). The ER-derived peptide stimulation of specific CD8+ CTL populations was assessed by MHC-I tetramer staining by flow cytometry using a combination of two-color tetramer for each peptide.
(§1) Tetramer Staining. Cells were resuspended in PBS, stained with Live/Dead Aqua-405 nm (ThermoFisher) during 20 minutes at 4° C. and washed once. After that, cells were resuspended in PBS-1% BSA containing the mix of SA-coupled tetramers and incubated in the dark at room temperature during 20 minutes. Without further washing, surface antibodies were added in PBS-1% BSA and cells were incubated 20 minutes in the dark at 4° C. Surface antibodies were a combination of anti-CD3-BV650+ anti-CD8-PECy7 in combination with anti-CCR7-AF700+ anti-CD45RA-BUV395 when required. Finally, cells were washed twice and resuspended in FACS buffer for flow cytometry analysis.
The following step after binding validation to HLA-A2 allele, was to test the immunogenicity of predicted peptides. Priming assays were thus performed to test the ability of identified peptides to expand specific cytotoxic T cells. PBMCs from HLA-A2+ healthy donors were used to generate monocyte derived-DCs (moDCs). After loading the moDCs with a mix of synthetic peptides, autologous co-culture was performed with CD4+ and CD8+ T cells. Finally, the expansion of specific CD8+ T cells was analysed by flow cytometry using two-colours tetramer staining. As a control of specific expansion, the co-culture was performed in the absence of peptides.

[2] = system: CD8+ T cells from tumor, juxta tumor, lymph nodes and blood of LUAD patients; experiment: Tetramer staining of TILs and CD8+ T cells from LUAD patient samples; assay type: cell-based, human; settings: TILs from LUAD patients expanded with peptide mix + IL-2 or IL-2 only
Experimental: In experiments addressed to evaluate the presence of specific CD8+ T cells, the tetramerization step was performed by incubating the monomers with different combinations of fluorescent streptavidin (PE, APC, PE-Cy5, PE-CF594, BV421, BV711 and FITC).
as §1, with “analysis. […]” for “analysis.”
Tumor infiltrating lymphocytes (TILs) cultures. […] Cells were feed/split as necessary during 15-20 days and cryopreserve or analyzed for tetramer staining.
In a first set of experiments tumor infiltrating lymphocytes (TILs) expanded with a mix of TE-derived peptides and Il-2, or only with Il-2, were analyzed by tetramer staining. […]
In a second cohort of 5 primary, untreated, LUAD tumor, juxta-tumor, tumor-draining lymph node and blood samples from LUAD cancer HLA-A2+ patients were analyzed. […]

| Sequence | specific CD8+ T expansions (immunogenicity) [1] | expansion of specific CD8+ T cells (tetramer positive) [1] | tetramer positive CD8+ T cells in TILs [2] |
| --- | --- | --- | --- |
| SLMQSGSPV | specific CD8+ T expansions | – | – |
| ILTASITSI | specific CD8+ T expansions | – | – |
| LLDRFGYHV | specific CD8+ T expansions | – | – |
| LLTSWHLYL | specific CD8+ T expansions | – | – |
| YLPYFLKSL | specific CD8+ T expansions | – | – |
| LLGETKVYV | specific CD8+ T expansions | expand specific CD8+ T cells | – |
| VLMWTMAHL | specific CD8+ T expansions | – | – |
| YLWTTFFPL | specific CD8+ T expansions | expand specific CD8+ T cells | – |
| GLLNISHTA | specific CD8+ T expansions | – | – |
| YLQGLPLPL | specific CD8+ T expansions | – | – |
| GLPSHVELA | specific CD8+ T expansions; also recorded: immunogenic | – | TILs recognizing |
| RLLHLESFL | specific CD8+ T expansions | expand specific CD8+ T cells | – |
| AILPKANTV | specific CD8+ T expansions | expand specific CD8+ T cells | – |
| RQAPGFHHA | specific CD8+ T expansions | – | – |
| ILSGYGPCV | specific CD8+ T expansions | – | – |
| FLGTRVTRV | specific CD8+ T expansions | – | – |
| AMDGKELSL | specific CD8+ T expansions | – | – |
| RLADHLSFC | specific CD8+ T expansions; also recorded: immunogenic | expand specific CD8+ T cells | – |
| VLLTNTIWL | specific CD8+ T expansions | – | – |
| MLVTWELAL | specific CD8+ T expansions | – | – |
| MLMKTVWQA | specific CD8+ T expansions | – | – |
| ILHSLVTGV | specific CD8+ T expansions | – | – |
| FLIVAEILI | – | expand specific CD8+ T cells | – |
| LLHLESFLV | specific CD8+ T expansions | – | – |

From patent US20250302929A1, “TUMOR NEOANTIGENIC PEPTIDES” (INSTITUT CURIE, priority 2021, published 2025)
